Structures can show the parent of a compound that is named as a salt. *1 amine or outer side, *2 acyl side, *3 side chain or, on linkers, in order; H or OH if unused. Where a SMILES comes first, the peptide text is derived from it. Side-chain parts run from the residue outwards. [ ]: non-standard residue; d: D form. The star is where a group is joined. Ethylenediamine = C(CN[*:2])N[*:1]; Hyp = O=C(O)[C@@H]1C[C@@H](O)CN1; Phg = N[C@H](C(=O)O)c1ccccc1; CO = O=C([*:1])[*:2]; Bn = c1ccc(C*)cc1

The conditions of series [1]: in vivo; cited from earlier work.
The subject of another series is SSTR2 and SSTR5. The conditions noted are these: cited from earlier work.
For series [2] the following is noted: cited from earlier work.
Series [3] can be described thus: Solubility screening of SOM230 in lipid formulations (visual inspection). In kind it is physicochemical. On the procedure:
Placebo lipid mixture formulations as well as formulations of the single respective lipid alone were prepared in 1 OR vials according to Table 1. The sample size was 6 g. […] The samples were allowed to equilibrate at ambient room temperature; samples with formulation types 1-8 on end-over-end rotation and samples with formulation types 9-12 on magnetic stirring. The flow chart in FIG. 1 describes the sample preparation process. The screening covered the following formulation variables: • Lipid weight ratio (SPC/GDO weight ratio) • Co-solvent nature and concentration • Single lipid formulations • Single solvent (only PG) The samples were studied by visual inspection and the appearance was noted. […] Mixing at ambient room temperature and visual observation continued after addition of more SOM230 drug powder.

The nature of series [4]: Stability comparison of SOM230 salt forms in lipid formulations, HPLC. Type of series: physicochemical. As to conditions: storage for 2 weeks at 60° C.; ca 30 mg/mL free base. On the procedure: The lipid/SOM230(Pm), lipid/SOM230(Cl) and lipid/SOM230(Ac) formulations were divided into two 2R vials which were placed at 60° C. and the remaining amount from the preparation was assayed by HPLC (time point zero).
The samples stored at 60° C. were pulled out after 2 weeks of storage for visual inspection and HPLC analysis.

As to `C[C@@H](O)[C@@H]1NC(=O)[C@H](CCCCN)NC(=O)[C@@H](Cc2c[nH]c3ccccc23)NC(=O)[C@H](Cc2ccccc2)NC(=O)[C@@H](NC(=O)[C@H](N)Cc2ccccc2)CSSC[C@@H](C(=O)N[C@H](CO)[C@@H](C)O)NC1=O` [Octreotide, D-Phe-Cys-Phe-D-Trp-Lys-Thr-Cys-Thr-ol (2-7 disulphide bridge)], the Terminal half-life result in series [1] is on record as “around 1.7 hours”. In addition, the “Selectivity for somatostatin receptors” value with SSTR2 and SSTR5 is given as “high selectivity”.

As to `NCCCC[C@@H]1NC(=O)[C@@H](Cc2c[nH]c3ccccc23)NC(=O)[C@H](c2ccccc2)NC(=O)[C@@H]2C[C@@H](OC(=O)NCCN)CN2C(=O)[C@H](Cc2ccccc2)NC(=O)[C@H](Cc2ccc(OCc3ccccc3)cc2)NC1=O` [Pasireotide] (cyclo([Hyp]([CO-Ethylenediamine])[Phg][dW]KY(Bn)F); ring closure inferred), the Half-life in series [2] (biological half-life) is 2 to 3 h. Also, the “Initial half-life following the peak” value in series [2] (human, single subcutaneous dose) is 2 to 3 h. Besides, the “Solubility of SOM230 in EtOH” value in series [3] (ethanol) is recorded as below 1 wt %. For the same compound, the “Solubility of SOM230 in PG” value in series [3] (propylene glycol only) is recorded as above 1 wt %.

In the case of `NCCCC[C@@H]1NC(=O)[C@@H](Cc2c[nH]c3ccccc23)NC(=O)[C@H](c2ccccc2)NC(=O)[C@@H]2C[C@@H](OC(=O)NCCN)CN2C(=O)[C@H](Cc2ccccc2)NC(=O)[C@H](Cc2ccc(OCc3ccccc3)cc2)NC1=O` [SOM230 hydrochloride] (cyclo([Hyp]([CO-Ethylenediamine])[Phg][dW]KY(Bn)F)), the “Stability of salt form in the lipid formulations (HPLC)” value in series [4] was “more stable than the acetate salt but not as stable as the pamoate salt”.

As to Pasireotide pamoate [SOM230 pamoate], the “Stability of salt form in the lipid formulations (HPLC)” value in series [4] is “most stable salt form”.

The values above are taken from US11672843B2, “Somatostatin receptor agonist formulations” (CAMURUS AB, priority 2012, dated 2023).
